Measurements: patent US9187458B2, “Cyanoquinoline derivatives” (Tianjin Hemay Bio-Tech Co., LTD., priority 2010, dated 2015)

Key:
EGFR-TK = target: T1, EGFR-TK (Homo sapiens, UniProt P00533); assay: Inhibition Test on EGFR-TK (ELISA, PGT substrate); assay type: biochemical; conditions: 20 min at room temperature, read-out: Inhibition Activity (EC50) on EGFR-TK phosphorylation
T1 construct: EGFR-TK: intracellular epidermal growth factor receptor phosphorylase
Description: Inhibition Test on EGFR-TK
1. 2 mg/ml of PGT was diluted with PBS to 0.2 mg/ml. The resulting solution was added into elisa plate by 50 μl per well. The plate was placed in a refrigerator at 4° C. and coated overnight.
2. The coating solution was discarded to stop coating. The plate was washed three times with PBS, and then beaten to dryness.
3. The elisa plate was placed in a refrigerator at 4° C., drained out and stood for 2h.
4. The mother liquid of aqueous solution of each compound was diluted with double distilled water to four folds, i.e. a desirable concentration. Then, the compound was diluted and added in the corresponding elisa well by 25 μl/well.
5. […] of ATP solution was diluted with double distilled water to 50 folds and then sufficiently mixed. The resulting solution was separately added in each elisa well by 25 μl per well (except for the negative control).
6. EGFR kinase was diluted with 2×TKB to 800 folds. The solution was added in elisa well with 50 μl per well. Then, the enzyme reaction began. The elisa plate was immediately placed on a micro-oscillator and shaked to react for 20 min at the room temperature.
7. 2% of SDS was added in the elisa well to stop the reaction by adding 100 μl of SDS into each well. The solution was sufficiently mixed on the micro-oscillator to sufficiently mix for about 5 min.
8. The reaction solution was sucked out. The plate was washed four times with PBST. After the plate was beaten to dryness, 0.25 μg/ml of mice anti-phosphorylation tyrosine-HRP antibody which was diluted with blocking solution (3% solution of BSA in PBST) was added in the plate by 100 μl per well. The mixture was reacted for 30 min at the room temperature.
9. The antibody reaction solution was sucked out. The plate was washed four times with PBST. After the plate was beated to dryness, TMB peroxidase substrate was added to the plate by 100 μl/well. The mixture reacted in the dark for 15 min at the room temperature.
10. 100 μl of 2N H2SO4 was added in the plate to stop the chromogenic reaction. After the bubbles were cleansed, OD values were determined in ELIASA at 450 nm.
11. Formula for calculating inhibition percentage: […]

BxPc-3 cells = assay: BxPc-3 Cell Growth Inhibition Test (MTT Assay); assay type: cell-based; conditions: Homo sapiens, 72 h incubation
Description: BxPc-3 Cell Growth Inhibition Test (MTT Assay) Cell strains: BxPC-3 (human pancreatic cancer cell strains); Culture medium: 90% RPMI-1640+10% FBS; 1. A plate (10 cm) of cells in logarithmic growth phase normally cultured was collected; 2. The culture solution was sucked out. […] The plate was washed with 5 ml of PBS 1-2 times; 3. PBS was sucked out. 1.5 ml of 0.25% pancreatin was added to infiltrate the cells for 1 min; 4. The pancreatin was sucked out. The culture plate was placed in an incubator. Digestion was carried out for about 5 min at 37° C.; 5. 4.5 ml of complete culture solution was added to the culture plate to stop the digestion. The cells were carefully scoured with micropipette (1 ml) to give a uniform cell suspension. The suspension was implanted into a 96-well cell culture plate by 5000 cells/100 μl per well. The culture plate was incubated overnight under 5% CO2 at 37° C. In day 2, 100 μl of culture solution comprising a compound was added in each well, and further incubated for 72 h under 5% CO2 at 37° C. 6. The culture solution was sucked out; 7. 100 μl of serum-free culture solution containing 0.5 mg/ml MTT was added in each well, and incubated for 3 h; 8. The culture solution was carefully sucked out; 9. 100 μl of DMSO was added in each well and vibrated to dissolve; 10. OD values were determined at […]. 1. Calculation of Relative Inhibition Ratio The inhibition ratio of a compound on cell growth=(PC−n)/(PC−NC)×100% IC50: Concentration of a compound where inhibition ratio was 50%. IC50 values were fitted with Origin7.5.

NCI-H358 cells = assay: NCI-H358 Cell Growth Inhibition Test (MTT Assay); assay type: cell-based; conditions: Homo sapiens, 72 h incubation
Description: NCI-H358 Cell Growth Inhibition Test (MTT Assay)
Cell strains: NCI-H358 (human non-small cell lung cancer cell strains);
1. A plate (10 cm) of cells in logarithmic growth phase normally cultured was collected;
2. The culture solution was sucked out. The plate was washed with 5 ml of PBS 1-2 times;
3. PBS was sucked out. 1.5 ml of 0.25% pancreatin was added to infiltrate the cells for 1 min;
4. The culture plate was placed in an incubator. Digestion was carried out for about 5 min at 37° C.;
5. 3 ml of complete culture solution was added to the culture plate to stop the digestion. Tthe cells were carefully scoured with micropipette (1 ml) to give a uniform cell suspension. The suspension was implanted into a 96-well cell culture plate by 10000 cells/100 […] per well. The culture plate was incubated overnight under 5% CO2 at 37° C. In day 2, 100 μA of culture solution comprising a compound was added in each well, and further incubated for 72 h under 5% CO2 at 37° C.
6. The culture solution was sucked out;
7. 100 μA of serum-free culture solution containing 0.5 mg/ml MTT was added in each well, and incubated for 3 h;
8. The culture solution was carefully sucked out;
9. 100 μA of DMSO was added in each well and vibrated to dissolve;
10. OD values were determined at 490 nM.
1. Calculation of Relative Inhibition Ratio The inhibition ratio of a compound on cell growth=(PC−n)/(PC−NC)×100%
IC50: Concentration of a compound where inhibition ratio was 50%. IC50 values were fitted with Origin7.5.

T1 sequence (P00533 669-1210 limits assumed): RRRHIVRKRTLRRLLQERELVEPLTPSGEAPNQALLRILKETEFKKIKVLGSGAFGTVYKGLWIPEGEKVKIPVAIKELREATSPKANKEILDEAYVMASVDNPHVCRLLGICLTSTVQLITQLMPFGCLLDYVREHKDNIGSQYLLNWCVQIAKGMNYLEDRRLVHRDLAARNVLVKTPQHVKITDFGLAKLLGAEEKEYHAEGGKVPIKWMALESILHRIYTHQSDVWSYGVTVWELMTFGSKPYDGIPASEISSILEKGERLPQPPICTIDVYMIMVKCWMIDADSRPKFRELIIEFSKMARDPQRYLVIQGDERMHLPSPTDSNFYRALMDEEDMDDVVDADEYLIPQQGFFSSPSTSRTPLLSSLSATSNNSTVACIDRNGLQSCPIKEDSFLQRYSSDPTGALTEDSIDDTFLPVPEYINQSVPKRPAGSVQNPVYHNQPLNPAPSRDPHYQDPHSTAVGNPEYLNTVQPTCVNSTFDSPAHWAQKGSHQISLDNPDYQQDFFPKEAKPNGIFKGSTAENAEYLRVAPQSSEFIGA

Structure (SMILES): C#Cc1cccc(Nc2c(C#N)cnc3cc(OC4CCOC4)c(NC(=O)/C=C/CN(C)C)cc23)c1 (stereo not shown) [Example 5, (E)-N-(3-CYANO-4-(3-ETHYNYLPHENYLAMINO)-7-(TETRAHYDROFURAN-3-YL-OXY)QUINOLIN-6-YL)-4-(DIMETHYLAMINO)-BUT-2-ENAMIDE]
- EC50 (EGFR-TK): 44 nM

Structure (SMILES): CN(C)C/C=C/C(=O)Nc1cc2c(Nc3ccc(OCc4ccccn4)c(Cl)c3)c(C#N)cnc2cc1OC1CCOC1 (stereo not shown) [Example 21, (E)-N-(4-(3-CHLORO-4-(PYRIDIN-2-YL-METHOXY)PHENYLAMINO)-3-CYANO-7-(TETRAHYDROFURAN-3-YL-OXY)QUINOLIN-6-YL)-4-(DIMETHYLAMINO)-BUT-2-ENAMIDE]
- EC50 (EGFR-TK): 154 nM

Structure (SMILES): CN(C)C/C=C/C(=O)Nc1cc2c(Nc3ccc(F)c(Cl)c3)c(C#N)cnc2cc1O[C@H]1CCOC1 [Example 142, (S,E)-N-(4-(3-CHLORO-4-FLUOROPHENYLAMINO)-3-CYANO-7-(TETRAHYDROFURAN-3-YL-OXY)QUINOLIN-6-YL)-4-(DIMETHYLAMINO)-BUT-2-ENAMIDE]
- IC50 (BxPc-3 cells): 416 nM

Structure (SMILES): CN(C)C/C=C/C(=O)Nc1cc2c(Nc3ccc(OCc4ccccn4)c(Cl)c3)c(C#N)cnc2cc1O[C@@H]1CCOC1 [Example 139, (R,E)-N-(4-(3-CHLORO-4-(PYRIDIN-2-YL-METHOXY)PHENYLAMINO)-3-CYANO-7-(TETRAHYDROFURAN-3-YL-OXY)QUINOLIN-6-YL)-4-(DIMETHYLAMINO)-BUT-2-ENAMIDE]
- IC50 (BxPc-3 cells): 188 nM

Structure (SMILES): CN(C)C/C=C/C(=O)Nc1cc2c(Nc3ccc(OCc4ccccn4)c(Cl)c3)c(C#N)cnc2cc1O[C@H]1CCOC1 [Example 138, (S,E)-N-(4-(3-CHLORO-4-(PYRIDIN-2-YL-METHOXY)PHENYLAMINO)-3-CYANO-7-(TETRAHYDROFURAN-3-YL-OXY)QUINOLIN-6-YL)-4-(DIMETHYLAMINO)-BUT-2-ENAMIDE]
- EC50 (EGFR-TK): 110 nM
- IC50 (NCI-H358 cells): 54 nM
- IC50 (BxPc-3 cells): 337 nM

Structure (SMILES): CC(C)(C)NC/C=C/C(=O)Nc1cc2c(Nc3ccc(OCc4ccccn4)c(Cl)c3)c(C#N)cnc2cc1O[C@H]1CCOC1 [Example 153, (S,E)-N-(4-(3-CHLORO-4-(PYRIDIN-2-YL-METHOXY)PHENYLAMINO)-3-CYANO-7-(TETRAHYDROFURAN-3-YL-OXY)QUINOLIN-6-YL)-4-(TERT-BUTYLAMINO)-BUT-2-ENAMIDE]
- IC50 (NCI-H358 cells): 78 nM

Structure (SMILES): CN(C)C/C=C/C(=O)Nc1cc2c(Nc3ccc(OCc4cccc(F)c4)c(Cl)c3)c(C#N)cnc2cc1OC1CCOC1 (stereo not shown) [Example 9, (E)-N-(4-(4-(3-FLUOROBENZYLOXY)-3-CHLOROPHENYLAMINO)-3-CYANO-7-(TETRAHYDROFURAN-3-YL-OXY)QUINOLIN-6-YL)-4-(DIMETHYLAMINO)-BUT-2-ENAMIDE]
- EC50 (EGFR-TK): 135 nM

Structure (SMILES): CN(C)C/C=C/C(=O)Nc1cc2c(Nc3ccc(F)c(Cl)c3)c(C#N)cnc2cc1OC1CCOC1 (stereo not shown) [Example 4, (E)-N-(4-(3-CHLORO-4-FLUOROPHENYLAMINO)-3-CYANO-7-(TETRAHYDROFURAN-3-YL-OXY)QUINOLIN-6-YL)-4-(DIMETHYLAMINO)-BUT-2-ENAMIDE]
- EC50 (EGFR-TK): 42 nM
